Reference: patent US20240226287A1, “NOVEL LIPID COMPOUND AND LIPID NANOPARTICLE COMPOSITION COMPRISING THE SAME” (KOREA INSTITUTE OF SCIENCE AND TECHNOLOGY, priority 2022, published 2024)

tested on: Renilla Luciferase (R/L) mRNA; test: Delivery efficiency: R/L protein expression after i.d. injection of mRNA-LNP into mouse ears (luminescence); type: in vivo, ICR mice; details: conclusion from FIGS. 4 to 8; replacing cholesterol/butyl lithocholate in LNP
Description: mRNA-LNP was injected into the ears of ICR mice by I.D. in an amount of 5 μg/20 μl based on RNA to identify expression.
The experimental process is as follows. Each experimental group was prepared in a dose of 5 μg/20 μl based on RNA and then injected into each ear of mice by I.D. Thereafter, the expression was identified according to the maximum expression time of a target protein. In the case of R/L on which the experiment was actually carried out, expression and maintenance were identified according to two time periods which are 6 hours and 24 hours.
After anesthesia using an individual respiratory anesthesia machine, a drug to be administered that is suitable for the experimental condition was injected via an insulin syringe. Thereafter, euthanasia was performed using CO2 at each corresponding time, and then ears were cut off. While dipping the cut ears in 300 μl of 1× Renilla Lyswas buffer, ears were completely crushed using scissors and a homogenizer instrument. Thereafter, 20 μl was taken from the mixture solution, transferred to a white 96-well plate, and added with 100 μl of Promega's Renilla luciferase assay substrate, and then luminescence was measured to compare expression.

Row | Compound | effect as substitute for the structure-retaining compound (R/L expression of the LNP)
1 | C[C@H](CCC(=O)O)[C@H]1CC[C@H]2[C@@H]3CC[C@@H]4CC(=O)CC[C@]4(C)[C@H]3CC[C@]12C [3-oxo-5β-cholanoic acid] | excellent effects
2 | CC1=C(/C=C/C(C)=C/C=C/C(C)=C/C=C/C=C(C)/C=C/C=C(C)/C=C/C2=C(C)CCCC2(C)C)C(C)(C)CCC1 [beta-carotene] | excellent effects
3 | O=c1cc(-c2ccc(O)c(O)c2)oc2cc(O)cc(O)c12 [luteolin] | excellent effects
